Literature values, collected in patent US12403100B2, “Natural combination products and methods for regulation of total blood cholesterol” (priority 2018, dated 2025).
Values belong to the compound of their own block, whether it stands above or below them.

Legend:
CYP 3A4 = CYP 3A4 (Homo sapiens, UniProt P08684)
CYP 2C9 = CYP 2C9 (Homo sapiens, UniProt P11712)
[1] = not given; remark: listed apart in the source
[2] = test system: hyperlipidemic patients with hypertension; settings: intake of 20 mg of lovastatin, same time (8 weeks)
[3] = Reynoso et al. 2002
[4] = not given; remark: listed apart in the source
[5] = aqueous-acidic medium
[6] = in vivo
[7] = target: T1, pancreatic cholesterol esterase (Sus scrofa, UniProt A0A286ZKB1); settings: depending on their concentration
T1 sequence (A0A286ZKB1 1-682): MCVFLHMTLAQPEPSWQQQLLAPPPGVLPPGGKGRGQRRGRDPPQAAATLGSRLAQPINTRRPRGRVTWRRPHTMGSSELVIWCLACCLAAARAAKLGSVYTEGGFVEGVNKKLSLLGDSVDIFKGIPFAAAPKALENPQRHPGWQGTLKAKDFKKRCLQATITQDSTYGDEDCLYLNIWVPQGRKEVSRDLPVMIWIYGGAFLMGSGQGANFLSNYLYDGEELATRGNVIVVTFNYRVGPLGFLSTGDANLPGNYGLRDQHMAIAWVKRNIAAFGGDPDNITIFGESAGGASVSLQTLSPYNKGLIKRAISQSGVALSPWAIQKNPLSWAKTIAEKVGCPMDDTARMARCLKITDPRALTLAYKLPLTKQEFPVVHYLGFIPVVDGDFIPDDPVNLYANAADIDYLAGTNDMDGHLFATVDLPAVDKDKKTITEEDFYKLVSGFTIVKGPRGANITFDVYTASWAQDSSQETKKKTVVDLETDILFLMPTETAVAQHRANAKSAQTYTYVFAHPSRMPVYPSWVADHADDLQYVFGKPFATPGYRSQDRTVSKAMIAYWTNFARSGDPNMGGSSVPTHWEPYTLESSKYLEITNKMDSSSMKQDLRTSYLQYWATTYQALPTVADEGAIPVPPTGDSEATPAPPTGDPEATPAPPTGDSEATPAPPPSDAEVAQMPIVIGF

lipoprotein mycelia = settings: concentration of 0.2 mg/mL
[8] = in vivo; remark: listed apart in the source

Sequence of CYP 2C9 (P11712 whole entry): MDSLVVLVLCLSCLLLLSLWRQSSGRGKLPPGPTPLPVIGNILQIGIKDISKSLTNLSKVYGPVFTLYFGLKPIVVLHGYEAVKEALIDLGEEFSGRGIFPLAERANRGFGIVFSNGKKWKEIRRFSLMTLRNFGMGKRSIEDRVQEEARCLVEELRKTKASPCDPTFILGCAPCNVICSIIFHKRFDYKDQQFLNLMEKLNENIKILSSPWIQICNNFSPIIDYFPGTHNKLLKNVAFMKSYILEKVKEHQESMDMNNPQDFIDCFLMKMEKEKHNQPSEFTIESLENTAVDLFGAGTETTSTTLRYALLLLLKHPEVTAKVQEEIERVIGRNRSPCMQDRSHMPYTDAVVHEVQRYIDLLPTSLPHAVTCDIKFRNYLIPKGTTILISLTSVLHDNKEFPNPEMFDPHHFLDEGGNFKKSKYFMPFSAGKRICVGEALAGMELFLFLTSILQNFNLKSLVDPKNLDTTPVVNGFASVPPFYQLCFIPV
Sequence of CYP 3A4 (P08684 whole entry): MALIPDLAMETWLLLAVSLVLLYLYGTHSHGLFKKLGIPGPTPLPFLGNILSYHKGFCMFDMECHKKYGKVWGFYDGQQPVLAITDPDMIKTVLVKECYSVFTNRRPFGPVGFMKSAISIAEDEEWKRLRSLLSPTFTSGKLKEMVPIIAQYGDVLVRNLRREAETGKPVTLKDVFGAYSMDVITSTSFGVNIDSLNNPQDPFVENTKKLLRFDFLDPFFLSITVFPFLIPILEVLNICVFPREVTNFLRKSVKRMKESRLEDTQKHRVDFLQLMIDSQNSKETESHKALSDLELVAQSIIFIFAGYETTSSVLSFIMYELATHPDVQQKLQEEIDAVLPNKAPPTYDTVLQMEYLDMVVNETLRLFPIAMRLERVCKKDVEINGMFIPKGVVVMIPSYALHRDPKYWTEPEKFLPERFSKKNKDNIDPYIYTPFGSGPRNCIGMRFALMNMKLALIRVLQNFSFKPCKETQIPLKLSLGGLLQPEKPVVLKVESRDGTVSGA

Compound: CC(C)c1nc(N(C)S(C)(=O)=O)nc(-c2ccc(F)cc2)c1/C=C/[C@@H](O)C[C@@H](O)CC(=O)O [rosuvastatin]
lipophilic or hydrophilic: hydrophilic | metabolized by CYP 3A4 (CYP 3A4): not metabolized | metabolized by CYP 2C9 (CYP 2C9): metabolized

Compound: CC[C@H](C)C(=O)O[C@H]1C[C@@H](C)C=C2C=C[C@H](C)[C@H](CC[C@@H]3C[C@@H](O)CC(=O)O3)[C@H]21 [Lovastatin]
solubility in fat [1]: dissolves more easily in fat | solubility in water [1]: difficult to dissolve in water | reduction in cholesterol [2]: 19% | lipophilic or hydrophilic: lipophilic | absorbed from the digestive tract [3]: ~30% | remaining share of the maximal concentration ([4]; after about 24 hours): 10% | absorbed in the gastrointestinal tract ([4]; from the taken dose): about 30% | passage through the placental barrier ([4]; in vivo): passes through the placental barrier | share converted to beta hydroxyl acid ([4]; in vivo): about 30% | time to maximal hypolipidemic effect ([4]; in vivo): 4-6 weeks | time to overt hypolipidemic effect ([4]; in vivo): 2 weeks | time until maximal concentration is reached ([4]; in vivo): about 2 hours | eliminated in excrement ([4]; taken orally): 83% | eliminated in the urine ([4]; taken orally): 10% | Binding to Plasma proteins (%) (plasma proteins): 95% | bound to plasma proteins (plasma proteins; lovastatin and its metabolites): > 95% | energy released by the reverse process (hydrolysis) [5]: 10.1 kJ/mol | Absorption (%) [6]: 31% | Plasma half-life [6]: 2 to 4 h | Renal excretion (%) [6]: 30%

Compound: catechin
inhibition of pancreatic cholesterol ester [7]: significantly inhibit | reduction of the formation of lipoprotein mycelia (lipoprotein mycelia): 11.88±0.75%

Compound: CCC(C)(C)C(=O)O[C@H]1C[C@@H](C)C=C2C=C[C@H](C)[C@H](CC[C@@H]3C[C@@H](O)CC(=O)O3)[C@H]21 [Simvastatin]
Plasma half-life [6]: 1.3 to 2.4 h

Compound: O=C(O)c1cc(O)c(O)c(O)c1 [gallic acid]
inhibition of pancreatic cholesterol ester [7]: significantly inhibit | reduction of the formation of lipoprotein mycelia (lipoprotein mycelia): 27.26±2.17%

Compound: CC(C)n1c(/C=C/C(O)CC(O)CC(=O)O)c(-c2ccc(F)cc2)c2ccccc21 (centres unmarked) [Fluvastatin]
Passing through the blood-brain barrier [8]: No | lipophilic or hydrophilic: lipophilic | metabolized by CYP 2C9 (CYP 2C9): metabolized | Plasma half-life [6]: 1.2 h | Metabolism by CYP450 (CYP450): Yes

Other lines, results leading:

solubility in fat [1]: with more difficultly in fat | solubility in water [1]: dissolves easily in water | energy required for lactonization of mevinolinic acid in lovastatin [5]: 20.6 kJ/mol
Compound: CC[C@H](C)C(=O)O[C@H]1C[C@@H](C)C=C2C=C[C@H](C)[C@H](CC[C@@H](O)C[C@@H](O)CC(=O)O)[C@H]21 [Mevinolinic acid]

Passing through the blood-brain barrier [8]: No | lipophilic or hydrophilic: hydrophilic | metabolized by CYP 3A4 (CYP 3A4): not metabolized | Binding to Plasma proteins (%) (plasma proteins): 40-50% | Absorption (%) [6]: 35% | Plasma half-life [6]: 0.9 to 1.6 h | Renal excretion (%) [6]: 60% | Metabolism by CYP450 (CYP450): No
Compound: CC[C@H](C)C(=O)O[C@H]1C[C@H](O)C=C2C=C[C@H](C)[C@H](CC[C@@H](O)C[C@@H](O)CC(=O)O)[C@H]21 [Pravastatin]
